Measurements taken from patent US20240270748A1 (Merck Patent GmbH, priority 2021, published 2024).

Test system: YAP-TEAD interaction
Assay: SK-HEP-1 reporter assay (8xTEAD responsive elements driving NanoLuc luciferase)
Assay type: cell-based
Procedure: To identify inhibitors of YAP-TEAD interaction, 8×TEAD responsive elements driving the NanoLuc® luciferase gene were stably integrated into SK-HEP-1 cells (ECACC #: 91091816).
For the assay, cells were treated in duplicates with the test compounds in a 10-point dose, with the top concentration starting at 30 μM (final concentration in assay). After a 24 hour incubation at 37° C., 95% rH, and 5% CO2, a luciferase substrate/lysis reagent mix (NanoGlo™, Promega) was added to the cells, allowing the quantification of cellular luciferase activity.
Cell Media: The cells were cultured in the following media: MEM, +10% FBS, +1× GlutaMAX, +1 mM Sodium-Pyruvate, +100 μM Non-essential amino acids, +0.1 mg/ml Hygromycin. The media used for the assay was: MEM (w/o Phenol Red), +10% FBS, +1× GlutaMAX, +1 mM Sodium-Pyruvate, +100 μM Non-essential amino acids, +0.5% Pen/Strep
Reagents: The reagents used are listed below:
Cell culture: The cells were examined using an inverted microscope to check for health and cell density. To dissociate adherent cells, the monolayer of cells was washed once with pre-warmed PBS. After removing the PBS, 3 ml pre-warmed Accutase® was added to a F75 flask, dispersed evenly and the flask was allowed to sit in incubator for ˜4-5 minutes.
When a single cell suspension was obtained, 7 ml of prewarmed growth media was added and resuspended with the cells. The cell suspension was transferred to a sterile 15 ml conical centrifuge tube, and spun for 5 min at 300×g, RT. The supernatant was discarded and the pellet was resuspended in 10 ml of pre-warmed growth media.
The total cell count was determined, and 20 μl of the desired cell number was added to each well of a 384 well plate using a Multidrop Combi. The plates were then incubated for 24 hours at 37° C., 95% rH, and 5% C02.
Compound treatment: 24 hours after seeding, the cells were treated with compounds.
A 1:333 dilution of compounds, diluted in DMSO, was made to get a final concentration of 0.3% DMSO per well. To transfer the compounds to the assay plate, […] was shot from Labcyte low dead volume plates to the cell plates containing 20 μl media/well with the ECHO 555 liquid handling system.
After treatment, the cells were fed with 20 μl fresh pre-warmed assay media using a Multidrop combi.
The assay plates were then incubated for another 24 h at 37° C., 95% rH, and 5% CO2.
Luciferase readout: 24 h after treatment, the plates were taken out of the incubator and were allowed to equilibrate to RT. 30 μl of NanoGlo® reagent was added to the plates in the dark. Plates were shaken for 20 min on a Teleshake (˜1500 rpm) in the dark. The luminescence was then measured using an EnVision microplate reader. The IC50 values were generated using Genedata Screener®.

[1] = Homo sapiens, SK-HEP1, SK-HEP-1 reporter assay, class symbols
[2] = Homo sapiens, SK-HEP1, SK-HEP-1 reporter assay, n.d. = value not detectable below threshold given in parentheses, ND = not determinable within the entire range
[3] = SK-HEP-1 reporter assay, class symbols

| Compound | IC50 [1] [µM] | further results |
| --- | --- | --- |
| Cn1cc2c(n1)c1cc(S(=O)(=O)N3CCC[C@H]3c3cccnc3)ccc1n2-c1ccc(C(F)(F)F)cc1 (single isomer, unassigned) [Example C14] | > 10 | – |
| Cn1cc2c(n1)c1cc(S(=O)(=O)N3C[C@H](O)C[C@@H]3c3ccccc3)ccc1n2-c1ccc(C(F)(F)F)cc1 (single isomer, unassigned) [Example C40] | – | IC50 [2]: > 30 µM |
| Cn1cc2c(n1)c1cc(S(=O)(=O)N3C[C@@H](O)C[C@@H]3c3ccccc3)ccc1n2-c1ccc(C(F)(F)F)cc1 (single isomer, unassigned) [Example C45] | – | IC50 [2]: > 1 µM |
| Cn1cc2c(n1)c1cc(S(=O)(=O)N3C[C@H](O)C[C@H]3c3ccccc3)ccc1n2-c1ccc(C(F)(F)F)cc1 (single isomer, unassigned) [Example C46] | – | IC50 [2]: > 1 µM |
| Cn1cc2c(n1)c1cc(S(=O)(=O)N3C[C@@H](O)C[C@H]3c3ccccc3)ccc1n2-c1ccc(C(F)(F)F)cc1 (single isomer, unassigned) [Example C47] | – | IC50 [2]: > 10 µM |
| Cn1cc2c(n1)c1cc(S(=O)(=O)N3CCC[C@@H]3c3cncnc3)ccc1n2-c1ccc(C(F)(F)F)cc1 (single isomer, unassigned) [Example C61] | – | IC50 [2]: > 1 µM |
| Cn1cc2c(n1)c1cc(S(=O)(=O)N3CCC[C@H]3c3cncnc3)ccc1n2-c1ccc(C(F)(F)F)cc1 (single isomer, unassigned) [Example C68] | 0.1 to 10 | – |
| COCC[C@H](CO)NC(=O)c1ccc2c(c1)c1c(C)snc1n2-c1ccc(C(F)(F)F)cc1 (single isomer, unassigned) [Example C93] | 0.1 to 10 | – |
| Cc1snc2c1c1cc(C(=O)N=S(C)(=O)CCCO)ccc1n2-c1ccc(C(F)(F)F)cc1 (single isomer, unassigned) [Example C103] | – | IC50 [3]: 0.1 to 10 µM |
| Cn1cc2c3cc(C(=O)N[C@H](CCO)c4cncs4)ccc3n(-c3ccc(C(F)(F)F)cc3)c2n1 (single isomer, unassigned) [Example C163] | 0.1 to 10 | – |
| CC(NC(=O)c1ccc2c(c1)c1cn(C)nc1n2-c1ccc(C(F)(F)F)cc1)c1cccc(N)n1 (single isomer, unassigned) [Example C186] | 0.1 to 10 | – |
| Cn1cc2c3cc(C(=O)N=[S@@](=O)(CCO)Cc4cccnc4)ccc3n(-c3ccc(C(F)(F)F)cc3)c2n1 (single isomer, unassigned) [Example C190] | 0.1 to 10 | – |
| Cn1nc2c3cc(C(=O)N=[S@](=O)(CCO)Cc4cccnc4)ccc3n(-c3ccc(C(F)(F)F)cc3)c2n1 (single isomer, unassigned) [Example C235] | 0.01 to 0.1 | – |
| Cn1nc2c3cc(C(=O)N=[S@@](=O)(CCO)Cc4cccnc4)ccc3n(-c3ccc(C(F)(F)F)cc3)c2n1 (single isomer, unassigned) [Example C238] | 0.01 to 0.1 | – |
| COCCC(CO)NC(=O)c1ccc2c(c1)c1cn(C)nc1n2-c1ccc(C(F)(F)F)cc1 (single isomer, unassigned) [Example C246] | – | IC50 [3]: 0.1 to 10 µM |
| Cn1nc2c3cc(C(=O)N=[S@@](=O)(CCO)Cc4ccncc4)ccc3n(-c3ccc(C(F)(F)F)cc3)c2n1 (single isomer, unassigned) [Example C266] | 0.1 to 10 | – |
| Cn1cc2c3cc(NC(=O)CCl)ccc3n(-c3ccc(C(F)(F)F)cc3)c2n1 [Example 23, 2-chloro-N-[2-methyl-8-[4-(trifluoromethyl)phenyl]pyrazolo[3,4-b]indol-5-yl]acetamide] | > 10 | – |
| CC(NC(=O)c1ccc2c(c1)c1cn(C)nc1n2-c1ccc(C(F)(F)F)cc1)c1c[nH]nn1 (centres unmarked) [Example B5] | 0.1 to 10 | – |

| Compound | IC50 [1] [µM] | further results |
| --- | --- | --- |
| CC(NC(=O)c1ccc2c(c1)c1cn(C)nc1n2-c1ccc(C(F)(F)F)cc1)c1ncc[nH]1 (centres unmarked) [Example B8] | 0.1 to 10 | – |
| CC(CNC(=O)c1ccc2c(c1)c1cn(C)nc1n2-c1ccc(C(F)(F)F)cc1)c1ccc(F)nc1 (centres unmarked) [Example B92] | 0.1 to 10 | – |
| C[C@@H](CO)NS(=O)(=O)c1ccc2c(c1)c1nnn(C)c1n2-c1ccc(C(F)(F)F)cc1 [Example C1, N-[(2S)-1-hydroxypropan-2-yl]-3-methyl-4-[4-(trifluoromethyl)phenyl]-3H,4H-[1,2,3]triazolo[4,5-b]indole-7-sulfonamide] | – | IC50 [2]: > 30 µM |
| Cn1cc2c(n1)c1cc(S(=O)(=O)N3CCC[C@@H]3c3cccnc3)ccc1n2-c1ccc(C(F)(F)F)cc1 [Example C8, 3-[(2R)-1-({2-methyl-4-[4-(trifluoromethyl)phenyl]-2H,4H-pyrazolo[4,3-b]indol-7-yl}sulfonyl)pyrrolidin-2-yl]pyridine] | > 10 | – |
| Cn1nnc2c3cc(S(N)(=O)=O)ccc3n(-c3ccc(C(F)(F)F)cc3)c21 [Example C11, 3-methyl-4-[4-(trifluoromethyl)phenyl]-3H,4H-[1,2,3]triazolo[4,5-b]indole-7-sulfonamide] | – | IC50 [2]: > 30 µM |
| C[C@H](CO)NS(=O)(=O)c1ccc2c(c1)c1nnn(C)c1n2-c1ccc(C(F)(F)F)cc1 [Example C13, N-[(2R)-1-hydroxypropan-2-yl]-3-methyl-4-[4-(trifluoromethyl)phenyl]-3H,4H-[1,2,3]triazolo[4,5-b]indole-7-sulfonamide] | – | IC50 [2]: > 30 µM |
| Cn1cc2c3cc(N(S(C)(=O)=O)S(C)(=O)=O)ccc3n(-c3ccc(C(F)(F)F)cc3)c2n1 [Example C19, N-methanesulfonyl-N-{2-methyl-8-[4-(trifluoromethyl)phenyl]-2H,8H-pyrazolo[3,4-b]indol-5-yl}methanesulfonamide] | 0.1 to 10 | – |
| Cn1cc2c3cc(NC(=O)Cc4ccccn4)ccc3n(-c3ccc(C(F)(F)F)cc3)c2n1 [Example C22, N-{2-methyl-8-[4-(trifluoromethyl)-phenyl]-2H,8H-pyrazolo[3,4-b]indol-5-yl}-2-(pyridin-2-yl)acetamide] | > 10 | – |
| Cn1cc2c3cc(NC(=O)Cc4cccnc4)ccc3n(-c3ccc(C(F)(F)F)cc3)c2n1 [Example C23, N-{2-methyl-8-[4-(trifluoromethyl)-phenyl]-2H,8H-pyrazolo[3,4-b]indol-5-yl}-2-(pyridin-3-yl)acetamide] | 0.1 to 10 | – |
| C[C@@H](CCN)NC(=O)c1ccc2c(c1)c1cn(C)nc1n2-c1ccc(C(F)(F)F)cc1 [Example C26, N-[(2S)-4-aminobutan-2-yl]-2-methyl-8-[4-(trifluoromethyl)phenyl]-2H,8H-pyrazolo[3,4-b]indole-5-carboxamide] | 0.1 to 10 | – |
| C[C@H](CCN)NC(=O)c1ccc2c(c1)c1cn(C)nc1n2-c1ccc(C(F)(F)F)cc1 [Example C27, N-[(2R)-4-aminobutan-2-yl]-2-methyl-8-[4-(trifluoromethyl)phenyl]-2H,8H-pyrazolo[3,4-b]indole-5-carboxamide] | 0.1 to 10 | – |
| Cn1cc2c3cc(C(=O)OCCS(C)(=N)=O)ccc3n(-c3ccc(C(F)(F)F)cc3)c2n1 (centres unmarked) [Example C29, 2-[imino(methyl)oxo-λ^6-sulfanyl]ethyl 2-methyl-8-[4-(trifluoromethyl)phenyl]-2H,8H-pyrazolo[3,4-b]indole-5-carboxylate] | 0.01 to 0.1 | – |
| CNc1ccc2c(c1)c1cn(C)nc1n2-c1ccc(C(F)(F)F)cc1 [Example C32, N,2-dimethyl-8-[4-(trifluoromethyl)phenyl]-2H,8H-pyrazolo[3,4-b]indol-5-amine] | 0.1 to 10 | – |
| Cn1cc2c3cc(NC(=O)Cc4ccncc4)ccc3n(-c3ccc(C(F)(F)F)cc3)c2n1 [Example C33, N-{2-methyl-8-[4-(trifluoromethyl)phenyl]-2H,8H-pyrazolo[3,4-b]indol-5-yl}-2-(pyridin-4-yl)acetamide] | – | IC50 [2]: > 10 µM |
| O=C(O)c1ccc2c(c1)c1cnn(C(F)(F)F)c1n2-c1ccc(C(F)(F)F)cc1 [Example C34, 1-(trifluoromethyl)-8-[4-(trifluoromethyl)phenyl]-1H,8H-pyrazolo[3,4-b]indole-5-carboxylic acid] | 0.1 to 10 | – |
| Cn1cc2c3cc(C(=O)N=S(C)(=O)CCN)ccc3n(-c3ccc(C(F)(F)F)cc3)c2n1 (centres unmarked) [Example C36, N-[(2-aminoethyl) (methyl)οxο-λ^6-sulfanylidene]-2-methyl-8-[4-(trifluoromethyl)phenyl]-2H,8H-pyrazolo[3,4-b]indole-5-carboxamide] | 0.1 to 10 | – |
| Cn1cc2c3cc(C4CC(n5ccnn5)=NO4)ccc3n(-c3ccc(C(F)(F)F)cc3)c2n1 (centres unmarked) [Example C37, 1-(5-{2-methyl-8-[4-(trifluoromethyl)phenyl]-2H,8H-pyrazolo[3,4-b]indol-5-yl}-4,5-dihydro-1,2-oxazol-3-yl)-1H-1,2,3-triazole] | > 10 | – |
